Results taken from patent US20240269139A1, “COMPOUNDS FOR TARGETED PROTEIN DEGRADATION OF KINASES” (DANA-FARBER CANCER INSTITUTE, INC., priority 2020, published 2024).
Where two headings read alike, the source gives them in different places.

Legend:
Format in all cases: cell-based
[1] = molecular target: T1, protein kinases (human kinome) (Homo sapiens, UniProt O14965)
T1 sequence (O14965 1-403): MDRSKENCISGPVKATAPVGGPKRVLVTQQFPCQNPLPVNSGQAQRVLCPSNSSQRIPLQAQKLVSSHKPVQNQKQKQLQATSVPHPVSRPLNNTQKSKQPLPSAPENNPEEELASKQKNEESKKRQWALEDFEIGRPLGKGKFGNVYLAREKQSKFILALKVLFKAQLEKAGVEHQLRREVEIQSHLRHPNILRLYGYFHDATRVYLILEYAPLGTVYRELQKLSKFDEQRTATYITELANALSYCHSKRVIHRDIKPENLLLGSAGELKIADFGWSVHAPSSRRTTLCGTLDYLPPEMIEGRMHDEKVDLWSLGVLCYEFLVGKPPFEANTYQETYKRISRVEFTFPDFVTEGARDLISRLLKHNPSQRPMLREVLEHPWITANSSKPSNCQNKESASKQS

[2] = test system: protein kinases (human kinome); details: for logFC ABL1: ABL1 (P00519-2); for logFC of SRC: Accession P12931-2; for logFC LCK: accession P06239-3; for logFC RPS6KA1: RPS6KA1 (Q15418-2); for logFC MAPK8: MAPK8 P45983-4
[3] = molecular target: protein kinases (human kinome) (Homo sapiens, UniProt P30291); details: for logFC of WEE1: WEE1 P30291-1
Sequence of protein kinases (human kinome) (Homo sapiens, UniProt P30291) (P30291 whole entry): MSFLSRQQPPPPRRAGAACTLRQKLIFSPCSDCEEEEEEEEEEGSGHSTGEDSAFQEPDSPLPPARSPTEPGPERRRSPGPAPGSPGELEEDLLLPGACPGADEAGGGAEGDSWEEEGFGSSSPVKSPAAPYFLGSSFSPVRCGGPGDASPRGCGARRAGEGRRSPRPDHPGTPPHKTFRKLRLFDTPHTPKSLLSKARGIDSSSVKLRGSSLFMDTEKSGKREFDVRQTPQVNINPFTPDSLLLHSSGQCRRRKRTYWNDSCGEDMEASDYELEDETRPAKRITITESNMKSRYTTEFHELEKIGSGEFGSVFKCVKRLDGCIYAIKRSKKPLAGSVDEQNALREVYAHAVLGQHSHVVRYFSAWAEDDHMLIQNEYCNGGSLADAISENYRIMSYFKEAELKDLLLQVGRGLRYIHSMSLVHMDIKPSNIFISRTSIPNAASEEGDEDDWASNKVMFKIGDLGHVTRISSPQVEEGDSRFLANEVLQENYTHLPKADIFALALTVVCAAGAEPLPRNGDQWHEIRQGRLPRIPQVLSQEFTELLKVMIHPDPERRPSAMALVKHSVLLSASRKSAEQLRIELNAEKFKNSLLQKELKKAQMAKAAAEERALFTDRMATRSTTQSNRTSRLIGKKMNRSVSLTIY

[4] = molecular target: protein kinases (human kinome) (Homo sapiens, UniProt Q9H0K1); details: for logFC of SIK2: Accession Q9H0K1; for logFC SIK2 (Q9H0K1): direction of change down
Sequence of protein kinases (human kinome) (Homo sapiens, UniProt Q9H0K1) (Q9H0K1 whole entry): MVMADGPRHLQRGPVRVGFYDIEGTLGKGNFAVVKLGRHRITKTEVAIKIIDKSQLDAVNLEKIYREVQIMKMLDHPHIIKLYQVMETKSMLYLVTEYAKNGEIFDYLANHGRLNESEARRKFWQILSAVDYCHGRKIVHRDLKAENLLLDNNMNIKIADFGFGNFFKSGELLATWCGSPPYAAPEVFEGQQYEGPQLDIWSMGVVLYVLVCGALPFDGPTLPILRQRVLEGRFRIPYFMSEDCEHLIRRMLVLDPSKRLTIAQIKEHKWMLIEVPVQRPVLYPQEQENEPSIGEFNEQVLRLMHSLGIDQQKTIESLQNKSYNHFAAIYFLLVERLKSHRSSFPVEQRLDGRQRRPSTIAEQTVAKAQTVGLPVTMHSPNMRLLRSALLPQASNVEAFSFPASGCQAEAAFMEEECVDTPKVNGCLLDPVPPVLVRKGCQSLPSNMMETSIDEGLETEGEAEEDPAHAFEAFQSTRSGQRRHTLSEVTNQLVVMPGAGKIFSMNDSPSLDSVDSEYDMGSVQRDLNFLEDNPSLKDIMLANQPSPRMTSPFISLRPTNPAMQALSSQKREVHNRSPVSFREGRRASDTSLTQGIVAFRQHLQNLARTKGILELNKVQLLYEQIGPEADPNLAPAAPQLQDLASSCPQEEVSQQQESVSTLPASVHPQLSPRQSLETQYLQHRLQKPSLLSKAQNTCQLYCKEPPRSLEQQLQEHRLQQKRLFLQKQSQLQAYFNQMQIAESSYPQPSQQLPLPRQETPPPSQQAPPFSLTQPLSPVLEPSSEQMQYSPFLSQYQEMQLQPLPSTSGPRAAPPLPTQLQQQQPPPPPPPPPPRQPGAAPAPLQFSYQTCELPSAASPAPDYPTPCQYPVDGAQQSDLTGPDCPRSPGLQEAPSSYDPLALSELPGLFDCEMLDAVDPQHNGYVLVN

[5] = molecular target: protein kinases (human kinome) (Homo sapiens, UniProt P16591); details: for logFC of FER (P16591-1): down; for logFC of FER: FER P16591-1
Sequence of protein kinases (human kinome) (Homo sapiens, UniProt P16591) (P16591 whole entry): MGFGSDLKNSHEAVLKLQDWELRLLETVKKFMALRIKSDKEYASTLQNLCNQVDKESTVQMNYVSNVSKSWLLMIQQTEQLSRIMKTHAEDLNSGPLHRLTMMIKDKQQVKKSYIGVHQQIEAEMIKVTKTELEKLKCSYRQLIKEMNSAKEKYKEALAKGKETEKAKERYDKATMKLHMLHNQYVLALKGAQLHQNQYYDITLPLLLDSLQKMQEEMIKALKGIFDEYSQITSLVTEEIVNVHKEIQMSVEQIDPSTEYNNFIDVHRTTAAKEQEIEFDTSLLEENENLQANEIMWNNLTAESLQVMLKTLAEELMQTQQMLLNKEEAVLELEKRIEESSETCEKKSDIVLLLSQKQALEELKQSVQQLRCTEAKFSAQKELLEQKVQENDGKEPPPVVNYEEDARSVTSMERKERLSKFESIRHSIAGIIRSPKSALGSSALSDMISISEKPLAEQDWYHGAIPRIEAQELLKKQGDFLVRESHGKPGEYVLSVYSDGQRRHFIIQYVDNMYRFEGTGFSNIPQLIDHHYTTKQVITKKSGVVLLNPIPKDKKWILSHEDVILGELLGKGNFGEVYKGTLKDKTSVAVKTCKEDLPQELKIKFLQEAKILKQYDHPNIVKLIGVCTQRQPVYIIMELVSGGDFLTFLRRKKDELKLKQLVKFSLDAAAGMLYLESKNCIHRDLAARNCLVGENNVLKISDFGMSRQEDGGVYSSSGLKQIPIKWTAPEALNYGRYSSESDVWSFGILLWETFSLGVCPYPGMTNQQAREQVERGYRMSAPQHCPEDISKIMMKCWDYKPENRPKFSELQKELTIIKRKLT

[6] = molecular target: protein kinases (human kinome) (Homo sapiens, UniProt Q2M2I8)
Sequence of protein kinases (human kinome) (Homo sapiens, UniProt Q2M2I8) (Q2M2I8 whole entry): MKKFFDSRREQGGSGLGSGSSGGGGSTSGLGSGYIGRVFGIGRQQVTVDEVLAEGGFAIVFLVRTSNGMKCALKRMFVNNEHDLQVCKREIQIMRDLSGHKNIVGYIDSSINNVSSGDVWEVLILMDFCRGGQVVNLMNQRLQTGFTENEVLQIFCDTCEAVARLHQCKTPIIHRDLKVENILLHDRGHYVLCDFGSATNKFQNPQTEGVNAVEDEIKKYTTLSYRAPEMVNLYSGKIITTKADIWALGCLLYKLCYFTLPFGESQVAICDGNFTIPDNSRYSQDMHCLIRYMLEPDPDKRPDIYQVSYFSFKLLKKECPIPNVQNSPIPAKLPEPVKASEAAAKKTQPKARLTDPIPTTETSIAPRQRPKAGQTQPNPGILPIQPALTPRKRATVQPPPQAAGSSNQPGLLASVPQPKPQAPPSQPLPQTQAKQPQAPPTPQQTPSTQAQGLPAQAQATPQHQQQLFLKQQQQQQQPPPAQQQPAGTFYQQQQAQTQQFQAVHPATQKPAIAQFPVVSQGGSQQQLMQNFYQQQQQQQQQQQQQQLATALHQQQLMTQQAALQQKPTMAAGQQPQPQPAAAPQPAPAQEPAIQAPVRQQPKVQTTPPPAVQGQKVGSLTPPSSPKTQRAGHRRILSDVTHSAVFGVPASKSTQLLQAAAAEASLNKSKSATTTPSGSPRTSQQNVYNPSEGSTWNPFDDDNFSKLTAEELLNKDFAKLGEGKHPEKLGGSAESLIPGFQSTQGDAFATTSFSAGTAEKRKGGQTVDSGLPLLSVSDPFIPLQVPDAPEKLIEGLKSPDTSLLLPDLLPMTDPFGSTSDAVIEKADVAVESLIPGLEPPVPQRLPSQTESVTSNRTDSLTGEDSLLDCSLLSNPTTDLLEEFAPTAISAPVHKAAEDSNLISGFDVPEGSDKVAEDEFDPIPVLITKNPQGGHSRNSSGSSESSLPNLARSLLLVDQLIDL

[7] = Accession P06241-2, experiment wp071
[8] = experiment wp071, direction of change down
[9] = SRC (P12931-2) protein abundance, degrader vs DMSO, down
[10] = experiment wp131, direction of change down
[11] = CDK9 (P50750-2) protein abundance, degrader vs DMSO, down
[12] = experiment wp016, direction of change down
[13] = AAK1 (Q2M218-1), experiment wp146, down
[14] = AAK1, accession Q2M218-1, experiment wp146, direction of change down
[15] = AURKB Q96GD4-5, experiment wp146
[16] = Accession P49841-2, experiment wp146, direction down
[17] = CLK1 P49759-3, experiment wp146
[18] = Experiment wp146, direction down
[19] = GSK3B P49841-2, experiment wp146

For `Nc1ncnc2c1c(-c1ccc(Oc3ccccc3)cc1)nn2[C@H]1CC[C@H](N2CCN(CCOCCNC(=O)CNc3cccc4c3C(=O)N(C3CCC(=O)NC3=O)C4=O)CC2)CC1` (stereo partly shown) [SB1.G.181], the “logFC AURKA (O14965)” value ([1]; experiment wp071) was −0.3684, the “logFC ABL1” value ([2]; experiment wp071) was −1.735 and the “logFC FYN” value [2, 7] was −2.276. The “logFC of SRC” value ([2]; experiment wp071) was −2.478, the “logFC FYN” value ([2]; FYN P06241-2, experiment wp071) was −2.276 and the “logFC LCK” value [2, 8] was −1.774. For the same molecule, the logFC [2, 9] was −2.478, the “logFC ABL1 (P00519-2)” value ([2]; experiment wp071) was −1.735 and the “logFC LCK (P06239-3)” value [2, 8] was −1.774.

In the case of `Cn1c(=O)c(-c2c(Cl)cccc2Cl)cc2cnc(Nc3ccc(OCCNC(=O)CCCCCCNC(=O)COc4cccc5c4C(=O)N(C4CCC(=O)NC4=O)C5=O)cc3)nc21` (stereo not shown) [SB1.G.192.1], the “logFC AURKA (O14965)” value ([1]; experiment wp071) was −0.8111, the “logFC AURKA (O14965)” value ([1]; experiment wp081) was −0.7299 and the “logFC AURKA (O14965)” value ([1]; experiment wp131) was −0.6267. For the same molecule, the “logFC of WEE1” value ([3]; experiment wp081) was −1.764, the “logFC of WEE1” value ([3]; experiment wp131) was −1.647 and the “logFC WEE1 (P30291-1)” value ([3]; experiment wp071) was −2.367. The “logFC WEE1 (P30291-1)” value ([3]; experiment wp081) was −1.764, the “logFC WEE1 (P30291-1)” value ([3]; experiment wp131) was −1.647 and the “logFC of SIK2” value ([4]; experiment wp071) was −1.036. The “logFC of SIK2” value ([4]; experiment wp081) was −1.196, the “logFC of SIK2” value ([4]; experiment wp131) was −0.9342 and the “logFC SIK2” value ([4]; SIK2 (Q9H0K1), experiment wp071, down) was −1.036. For the same molecule, the “logFC SIK2 (Q9H0K1)” value ([4]; experiment wp081) was −1.196, the “logFC SIK2 (Q9H0K1)” value ([4]; experiment wp131) was −0.9342 and the “logFC ABL1” value ([2]; experiment wp071) was −1.417. For the same molecule, the “logFC ABL1” value ([2]; experiment wp081) was −1.189, the “logFC FYN” value [2, 7] was −1.595 and the “logFC FYN” value ([2]; Accession P06241-2, experiment wp081) was −0.9994. For the same molecule, the “logFC FYN” value ([2]; Accession P06241-2, experiment wp131) was −0.9918, the “logFC of SRC” value ([2]; experiment wp071) was −2.578 and the “logFC of SRC” value ([2]; experiment wp081) was −2.113. For the same molecule, the “logFC of SRC” value ([2]; experiment wp131) was −2.127, the “logFC TNK2 (Q07912-3)” value ([2]; Experiment wp071, direction down) was −1.728 and the “logFC TNK2 (Q07912-3)” value ([2]; Experiment wp081, direction down) was −0.9024. The “logFC FYN” value ([2]; FYN P06241-2, experiment wp071) was −1.595, the “logFC FYN” value ([2]; FYN P06241-2, experiment wp081) was −0.9994 and the “logFC FYN” value ([2]; FYN P06241-2, experiment wp131) was −0.9918. The “logFC LCK” value [2, 8] was −1.767, the “logFC LCK” value [2, 10] was −1.701 and the logFC ([2]; TNK2 (Q07912-3), experiment wp071, direction down) was −1.728. For the same molecule, the logFC ([2]; TNK2 (Q07912-3), experiment wp081, direction down) was −0.9024, the “logFC ABL1 (P00519-2)” value ([2]; experiment wp071) was −1.417 and the “logFC LCK (P06239-3)” value [2, 8] was −1.767. For the same molecule, the “logFC ABL1 (P00519-2)” value ([2]; experiment wp081) was −1.189, the “logFC ABL2 (P42684-5)” value ([2]; experiment wp131) was −2.8 and the “logFC of ABL2 (P42684-5)” value ([2]; experiment wp131) was −2.8. The “logFC LCK (P06239-3)” value [2, 10] was −1.701.

With `CC(C)S(=O)(=O)c1ccccc1Nc1nc(Nc2ccc(N3CCN(CCOCCNC(=O)CNc4ccc5c(c4)C(=O)N(C4CCC(=O)NC4=O)C5=O)CC3)cc2)ncc1Cl` (stereo not shown) [SK.3.93] the “logFC AURKA (O14965)” value ([1]; experiment wp016) was −1.823, the “logFC of FER (P16591-1)” value ([5]; Experiment wp016) was −2.64 and the “logFC of FER” value ([5]; experiment wp016) was −2.64. For the same molecule, the “logFC WEE1 (P30291-1)” value ([3]; experiment wp016) was −1.176, the “logFC AAK1” value ([6]; AAK1 (Q2M218-1), experiment wp016, down) was −1.588 and the “logFC AAK1” value ([6]; AAK1, accession Q2M218-1, experiment wp016, direction of change down) was −1.588. The “logFC of SRC” value ([2]; experiment wp016) was −0.3456, the logFC [2, 11] was −0.6376 and the “logFC PRKAA1 (Q13131-2)” value ([2]; Experiment wp016, direction down) was −0.4738. For the same molecule, the “logFC LCK” value [2, 12] was −0.7798, the “logFC RPS6KA1” value ([2]; experiment wp016) was −0.3413 and the logFC [2, 9] was −0.3456. The “logFC CDK9 (P50750-2)” value ([2]; experiment wp016) was −0.6376, the “logFC PRKAA1 (Q13131-2)” value ([2]; experiment wp016) was −0.4738 and the “logFC RPS6KA1 (Q15418-2)” value ([2]; experiment wp016) was −0.3413. For the same molecule, the “logFC LCK (P06239-3)” value [2, 12] was −0.7798.

`NC(=O)c1c(F)cccc1Nc1nc(Nc2ccc(S(=O)(=O)NCCOCCOCCOCCOCCNc3cccc4c3C(=O)N(C3CCC(=O)NC3=O)C4=O)cc2)ncc1Br` (stereo not shown) [TMX.02.138] was tested, and the “logFC AURKA (O14965)” value ([1]; experiment wp146) was −2.933, the “logFC of FER (P16591-1)” value ([5]; Experiment wp146) was −0.8083 and the “logFC of FER” value ([5]; experiment wp146) was −0.8083. The “logFC AAK1” value [6, 13] was −1.129, the “logFC AAK1” value [6, 14] was −1.129 and the logFC [2, 15] was −1.832. The “logFC AURKB” value [2, 15] was −1.832, the “logFC GSK3B” value [2, 16] was −0.604 and the logFC [2, 11] was −1.889. The logFC [2, 17] was −0.4648, the “logFC CLK1” value [2, 17] was −0.4648 and the “logFC MAPK8 (P45983-4)” value [2, 18] was −0.9813. For the same molecule, the “logFC PRKAA1 (Q13131-2)” value [2, 18] was −0.7125, the “logFC GSK3B” value [2, 19] was −0.604 and the “logFC MAPK8” value ([2]; experiment wp146) was −0.9813. For the same molecule, the “logFC RPS6KA1” value ([2]; experiment wp146) was −0.501, the “logFC CDK9 (P50750-2)” value ([2]; experiment wp146) was −1.889 and the “logFC CDK16 (Q00536-2)” value ([2]; experiment wp146) was −1.434. For the same molecule, the “logFC PRKAA1 (Q13131-2)” value ([2]; experiment wp146) was −0.7125 and the “logFC RPS6KA1 (Q15418-2)” value ([2]; experiment wp146) was −0.501.

For `Cc1cc(Nc2ncc(Br)c(Nc3cccc(F)c3C(N)=O)n2)ccc1S(=O)(=O)NCCOCCOCCOCCOCCNc1cccc2c1C(=O)N(C1CCC(=O)NC1=O)C2=O` (stereo not shown) [TMX.02.174], the “logFC AURKA (O14965)” value ([1]; experiment wp146) was −2.865, the “logFC of FER (P16591-1)” value ([5]; Experiment wp146) was −1.089 and the “logFC of FER” value ([5]; experiment wp146) was −1.089. For the same molecule, the “logFC of WEE1” value ([3]; experiment wp146) was −1.142, the “logFC WEE1 (P30291-1)” value ([3]; experiment wp146) was −1.142 and the “logFC AAK1” value [6, 13] was −1.62. For the same molecule, the “logFC AAK1” value [6, 14] was −1.62, the logFC [2, 15] was −1.578 and the “logFC AURKB” value [2, 15] was −1.578. The “logFC GSK3B” value [2, 16] was −0.6472, the logFC [2, 11] was −1.666 and the logFC [2, 17] was −0.4606. For the same molecule, the “logFC CLK1” value [2, 17] was −0.4606, the “logFC MAPK8 (P45983-4)” value [2, 18] was −0.7761 and the “logFC PRKAA1 (Q13131-2)” value [2, 18] was −1.622. For the same molecule, the “logFC GSK3B” value [2, 19] was −0.6472, the “logFC MAPK8” value ([2]; experiment wp146) was −0.7761 and the “logFC RPS6KA1” value ([2]; experiment wp146) was −0.6638. The “logFC CDK9 (P50750-2)” value ([2]; experiment wp146) was −1.666, the “logFC CDK16 (Q00536-2)” value ([2]; experiment wp146) was −1.176 and the “logFC PRKAA1 (Q13131-2)” value ([2]; experiment wp146) was −1.622. For the same molecule, the “logFC RPS6KA1 (Q15418-2)” value ([2]; experiment wp146) was −0.6638, the “logFC NEK1 (Q96PY6-3)” value ([2]; experiment wp146, direction of change down) was −0.3871 and the “logFC NEK1” value ([2]; protein NEK1 (Q96PY6-3), experiment wp146, down) was −0.3871.
